Laboratory results published in US7279497B2, “Benzopyran derivatives substituted with secondary amines including imidazole, their preparation and pharmaceutical compositions containing them” (Korea Research Institute of Chemical Technology, priority 2002, dated 2007).

Tests used:
[1] = system: HUVECs (Human umbilical vein endothelial cells); experiment: Inhibitory effects on HUVEC tube formation; format: cell-based;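 note: from minus no inhibition up to plus-plus-plus complete inhibition versus vehicle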
Procedure, shortened: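 HUVECs within passage 5 were plated on bFGF-reduced polymerized Matrigel and incubated with or without compound. Tube formation assessed as changes in cell morphology by phase-contrast microscopy and photography.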

[2] = system: SPF SD rats; settings: rat, in vivo, po;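 note: Six-week-old animals, two per group, followed across an observation period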
[3] = system: ischemic hearts; experiment: Cardioprotective activity in ischemic heart model of anesthetized rats; settings: Rat in vivo, 0.3 mg/kg i.v.
Experimental: In order to determine whether the compounds of formula 1 are protective for ischemic hearts, experiments determining the anti-ischemic effects of the compounds on rats were conducted as follows. Male rats (350-450 g, obtained from the Experimental Animal Team of the Korea Research Institute of Chemical Technology) were anesthetized by the intraperitoneal injection of pentobarbital at a dose of 75 mg/kg. After trachetomy, the rats were rendered to respire artificially at a rate of 60/min with a stroke volume of 10 ml/kg. Cannulars were inserted into the fermoral vein and the fermoral artery and used for drug administration and blood pressure measurement, respectively. In the ischemic myocardial injury models, the body temperature has an important influence on the results. To avoid the change in the body temperature, a body temperature measuring probe was inserted into the rectum of each rat and the body temperature was constantly kept at 37° C. with the aid of a homeothermic blanket control unit. Afterwards, during testing, a continuous measurement was made of the mean arterial blood pressures and heart rates from the rats. For the measurement of the blood pressure, a pressure transducer (Statham P23XL, Grass Ins., MA, U.S.A.) was used. The heart rate was measured by a tachometer (ECG/RATE Coupler, Hugo Sachs Electronic, German) identified as Biotachometer. In addition, all of the changes occurring were continuously recorded through the Gould 2000 chart recorder ([…] Linearcorder W R 3310, Hugo Sachs Electronic). The left coronary artery was occluded according to the Selye H. method as follows. The rats underwent a left thoracotomy operation for partial opening of the chest and the right-side chest was pressurized by the middle finger of the left hand to push the heart out. Immediately after the left anterior descending coronary artery hereinafter referred to as (LAD) was carefully stitched using a suture needle with 5-0 silk ligature, the heart was then repositioned in the thoracic cavity while both ends of the ligature were situated outside. The opposite ligature ends were passed through a PE tube (PE100, 2.5 cm) and allowed to stand loose for 20 min for stabilization. Via the cannula inserted into the femoral vein, vehicles or drugs were administered into the rats which were rendered to stand for 30 min in order to sufficiently elicit the efficacies of the drugs. […] From the images input into the computer, the area of the normal blood stream tissue region which appeared blue in a computer monitor and the area which appeared colorless were measured. The percentage of the colorless area to the total area of each slice was calculated and multiplied by the weight of each slice to determine the area at risk (AAR) of each slice. […]

COC(OC)[C@@]1(C)Oc2ccc([N+](=O)[O-])cc2[C@@H](N(Cc2ncc[nH]2)c2ccc(Cl)cc2)[C@@H]1O [Example 1, (2S,3S,4R)-3,4-dihydro-2-dimethoxymethyl-3-hydroxy-2-methyl-6-nitro-4-[N-(4-chlorophenyl)-N-(1H-imidazol-2-ylmethyl)amino]-2H-1-benzopyran]
Tube formation ([1]; 10 μM): +
Tube formation ([1]; 50 μM): +
Tube formation ([1]; 100 μM): ++
clinical symptoms, body weight and mortality [2]: no significant changes
AAR/LV (%) [3]: 33.4%
IZ/AAR (%) [3]: 41.2%
